Experimental data from US6841089B2, “Detoxification of onium compounds” (Baker Hughes Incorporated, priority 2001, dated 2005).

How the values were obtained:
Type in all cases: physicochemical
[1] = Quat removal from brine: additive, then heptane extraction, water layer analyzed for quat (Examples 1-4); settings: brine of 97.50 g water and 2.50 μg sodium chloride dosed with 1.52 g methanolic quat solution; 90 ml sample; 1.00 g DDBSA or 0.90 g oleic acid; shaken 1 minute with 10 ml heptane; centrifuged
Method: A brine solution comprising 97.50 g of water and […] of sodium chloride was dosed with 1.52 g of a methanolic solution of a quat (solution contains 33% methanol and 67% RE 4136 quaternary ammonium compound available from Baker Petrolite). A 90 ml sample of the water, sodium chloride, quat solution was shaken by hand for 1 minute with 10 ml of heptane. The mixture is centrifuged to separate the layers and the water layer was analyzed for quat. The above test was repeated but in this case the sample was dosed with 1.00 g of dodecylbenzenesulfonic acid (DDBSA) or 0.90 g of oleic acid (as indicated) before the addition of heptane and shaken by hand. These two cases required prolonged centrifugation to separate the phases. Again, the water phase was analyzed for quat. The quat concentration is expressed in ppm of methanolic quat solution.

[2] = Quat removal from brine: additive without heptane, oil layer separated, water layer washed with heptane (Examples 5-6); settings: same brine/quat solution, 90 ml; 0.45 g p-TSA or 0.74 g naphthenic acids; shaken 1 minute without heptane; water layer washed with 10 ml heptane
Method: In a second set of tests, a 90 ml sample of the above water, sodium chloride and quat solution was dosed with 0.45 g of para-toluenesulfonic acid (p-TSA) or 0.74 g of a mixture of naphthenic acids (as indicated). In this test, the mixture was shaken 1 minute by hand in the absence of heptane. The samples were centrifuged. An oil layer separated and remained at the top of the samples. The slightly hazy water layer was removed. The water layer was washed with 10 ml of heptane and again centrifuged. The clear water layer was analyzed for quat.

[3] = Quat removal from 16% sodium chloride brine suspension (Examples 7-8); settings: brine of 84 g water and 16 g sodium chloride with 1.52 g quat solution, used as suspension; 90 ml; 0.45 g p-TSA or 0.74 g naphthenic acids
Method: In a third set of tests, a brine solution comprising 84 g of water and 16 g of sodium chloride was dosed with 1.52 g of the above quat solution. In this case, the quat separates to some extent from the brine on standing and was used immediately in the next step as a suspension. A 90 ml sample of this suspension was dosed with 0.45 g of p-TSA or 0.74 g of a mixture of naphthenic acids (as indicated). The samples were treated as above and analyzed for quat.

SMILES | ppm of methanolic quat solution in water [1] | ppm of methanolic quat solution in water [2] | ppm of methanolic quat solution in water [3]
CCCCCCC [Heptane only, heptane] | 15,000 ppm | – | –
Cc1ccc(S(=O)(=O)O)cc1 [p-TSA, para-toluenesulfonic acid] | – | 178 ppm | 88 ppm
CCCCCCCCCCCCc1ccc(S(=O)(=O)O)cc1 [DDBSA, dodecylbenzenesulfonic acid] | 76 ppm | – | –
CCCCCCCC/C=C\CCCCCCCC(=O)O [Oleic acid, oleic acid] | 121 ppm | – | –
